# “And” between values parts separate entries of the source, which are not always exact repeats. Identical values can stand only once. “Also recorded” adds a separate entry of the source. Like-named read-outs stand apart in the source and are kept apart here.
# T1: YTHDF1 YTH domain (Homo sapiens, UniProt Q9BYJ9)
# T1 construct: The human YTHDF1 YTH domain (amino acids 365–554, PDB: 4RCJ); host or cells: E. coli BL21(DE3)
# T1 sequence (Q9BYJ9 365-554): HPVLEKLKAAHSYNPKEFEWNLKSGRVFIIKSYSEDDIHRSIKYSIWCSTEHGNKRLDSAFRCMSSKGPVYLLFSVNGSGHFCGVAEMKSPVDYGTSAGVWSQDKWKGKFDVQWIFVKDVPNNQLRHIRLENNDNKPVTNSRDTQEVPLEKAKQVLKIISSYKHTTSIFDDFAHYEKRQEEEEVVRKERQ
# T2: YTHDF1 domain (Homo sapiens, UniProt Q9BYJ9)
# T2 construct: The human YTHDF1 YTH domain (amino acids 365–554, PDB: 4RCJ); host or cells: E. coli BL21(DE3)
# T2 sequence (Q9BYJ9 365-554): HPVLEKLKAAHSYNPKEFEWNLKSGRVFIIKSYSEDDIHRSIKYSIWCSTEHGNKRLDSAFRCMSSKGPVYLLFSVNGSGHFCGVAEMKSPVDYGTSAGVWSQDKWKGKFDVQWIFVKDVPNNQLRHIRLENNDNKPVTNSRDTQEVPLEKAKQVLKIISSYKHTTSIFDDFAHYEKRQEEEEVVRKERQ
# T3: YTH domain of YTHDF1 / biotinylated RNA probe 5′-Bi-CCGAm6ACUGUC-3′ (Homo sapiens, UniProt Q9BYJ9)
# T3 construct: The human YTHDF1 YTH domain (amino acids 365–554, PDB: 4RCJ); host or cells: E. coli BL21(DE3)
# T3 sequence (Q9BYJ9 365-554): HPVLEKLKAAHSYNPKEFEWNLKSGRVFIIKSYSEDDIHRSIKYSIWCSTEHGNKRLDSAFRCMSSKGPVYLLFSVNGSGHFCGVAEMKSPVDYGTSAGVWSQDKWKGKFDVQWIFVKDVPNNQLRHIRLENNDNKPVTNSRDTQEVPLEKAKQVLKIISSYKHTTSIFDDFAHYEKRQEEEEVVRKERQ
# T4: YTHDF1 YTH domain (human, UniProt Q9BYJ9 365-554)
# T4 sequence: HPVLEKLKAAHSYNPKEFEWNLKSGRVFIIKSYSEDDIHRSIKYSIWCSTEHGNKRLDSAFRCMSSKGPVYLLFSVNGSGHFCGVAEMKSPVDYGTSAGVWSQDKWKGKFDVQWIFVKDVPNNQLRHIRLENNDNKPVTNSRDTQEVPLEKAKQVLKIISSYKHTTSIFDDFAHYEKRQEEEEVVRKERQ
# Tests used:
# YTHDF1 YTH domain [1] = target: T1, YTHDF1 YTH domain; assay: Tryptophan fluorescence quenching assay; type: binding
# Method: Fluorescence was measured using a Tecan Infinite 200 Microplate reader (Tecan Group Ltd.), setting the […] wavelength at 288 nm and collecting the emission data at 330 nm.
# YTHDF1 domain = target: T2, YTHDF1 domain; assay: High-throughput screen, tryptophan quenching, Z-score; type: binding; settings: 5 μM protein, compounds at 10 μM
# Method: A Z factor of 0.53 was obtained. The high-throughput screen was performed by using an automatic liquid handling (Freedom EVO, Tecan), filling black 384-well plates with 15 μL of 5 μM protein in 20 mM Tris (pH 7.5), 150 mM NaCl, and 10% glycerol, and then by adding the library of compounds at a final concentration of 10 μM. Fluorescence was measured immediately after compound addition. The library used was the Spectrum Collection (Microsource Discovery System, Inc.), composed of 2560 compounds, of whom 60% are clinically used drugs, 25% natural products, and 15% other bioactive molecules. The Z-score was calculated as (X – μp)/σp, where X is the fluorescence intensity of the protein. Candidate molecules were considered all of the ones that were under the threshold of Z = −3, while all of the ones over that value were discarded.
# [2] = target: T3, YTH domain of YTHDF1 / biotinylated RNA probe 5′-Bi-CCGAm6ACUGUC-3′; assay: AlphaScreen competitive assay, saturation binding; settings: for Disruption of the YTH/RNA interaction (AlphaScreen, in words): YTHDF1 YTH domain
# Method: The Amplified Luminescent Proximity Homogeneous Assay (ALPHA Assay) was performed in white 384-well Optiplates (PerkinElmer) in a final volume of 20 μL, and it was first optimized by titrating both the protein and the biotinylated RNA probe (5′-Bi-CCGAm6ACUGUC-3′, Dharmacon) to find the appropriate right protein/RNA ratio before the saturation of the detection signal. […] Anti-His acceptor beads (PerkinElmer) (20 μg/mL final concentration) and streptavidin donor beads (20 μg/mL final concentration) were added and the reaction was incubated in the dark at room temperature for 1 h to reach equilibrium. Light signals were detected with an Enspire Multimode Plate reader (PerkinElmer). […] The IC50 of ebselen was determined from the nonlinear regression fits of the data.
# YTHDF1 YTH domain [3] = target: T4, YTHDF1 YTH domain; assay: dynamic mass redistribution; settings: EC50; immobilized protein; m6A; Fluorescence: 20 mM Hepes pH 7.5, 150 mM NaCl, 10% glycerol; REMSA: 20 mM Hepes pH 7.5, 50 mM KCl, BSA, 0.25% glycerol, gel at 4 C; AlphaScreen: 25 mM Hepes pH …
# YTHDF1 YTH domain [4] = target: T4, YTHDF1 YTH domain; assay: tryptophan fluorescence quenching; 5 uM protein; Fluorescence: 20 mM Hepes pH 7.5, 150 mM NaCl, 10% glycerol; REMSA: 20 mM Hepes pH 7.5, 50 mM KCl, BSA, 0.25% glycerol, gel at 4 C; AlphaScreen: 25 mM Hepes pH; settings: protein: recombinant; tags: 6xHis (C-terminal as stated); single strand
# YTHDF1 YTH domain [5] = target: T4, YTHDF1 YTH domain; assay: tryptophan fluorescence quenching; EC50; 5 uM protein; Fluorescence: 20 mM Hepes pH 7.5, 150 mM NaCl, 10% glycerol; REMSA: 20 mM Hepes pH 7.5, 50 mM KCl, BSA, 0.25% glycerol, gel at 4 C; AlphaScreen: 25 mM Hepes pH; settings: protein: recombinant; tags: 6xHis (C-terminal as stated); single strand
# [6] = 5 μM protein, read-out: EC50 (tryptophan quenching)
# [7] = Table 1, read-out: EC50 (μM) (Tryptophan quenching)
molecule,measurement,setting,value
"CNc1ncnc2c1ncn2[C@@H]1O[C@H](CO)[C@@H](O)[C@H]1O [m6A, N^6-methyladenosine]",EC50,YTHDF1 YTH domain [1]; [6],596 µM
"O=C(NCCN1CCOCC1)c1ccccc1SSc1ccccc1C(=O)NCCN1CCOCC1 [Compound 10, 2,2′-Disulfanediylbis(N-(2-morpholinoethyl)benzamide)]",EC50,YTHDF1 YTH domain [1]; [7],2.9 ± 1.8 µM
"O=C1C(Cl)=C(Cl)C(=O)c2c(O)ccc(O)c21 [2,3-DICHLORO-5,8-DIHYDROXYNAPTHOQUINONE]",Mean(FI.z-score),YTHDF1 domain,-3.853
Nc1ncnc2c1ncn2[C@@H]1O[C@H](CO)[C@@H](O)[C@H]1O [adenosine],Tryptophan fluorescence quenching / binding to the YTH domain (in words),YTHDF1 YTH domain [1],not upon adenosine addition
"O=c1c2ccccc2[se]n1CCN1CCOCC1 [Compound 8, 2-(2-Morpholinoethyl)benzo[d][1,2]selenazol-3(2H)-one]",EC50,YTHDF1 YTH domain [1]; [7],3.35 ± 2.2 µM
O=C1C(Cl)=C(Cl)C(=O)C(Cl)=C1Cl [CHLORANIL],Mean(FI.z-score),YTHDF1 domain,-4.349
5-′CCGAm6ACUGUC-3′,EC50,YTHDF1 YTH domain [1]; [6],0.14 µM and 0.139 µM
"O=c1c2ccccc2sn1-c1ccccc1 [Compound 2, 2-Phenylbenzo[d]isothiazol-3(2H)-one]",Tryptophan fluorescence quenching / binding to the YTH domain (in words),YTHDF1 YTH domain [1],maintained both capacities
same,EC50,YTHDF1 YTH domain [1]; [7],1.76 ± 0.02 µM
same,IC50,"[2]; 50 nM RNA, 50 nM protein, compound 0–100 μM",23140 ± 80 nM
same,"Disruption of the YTH/RNA interaction (AlphaScreen, in words)",[2],maintained both capacities
"O=c1c2ccccc2sn1CCN1CCOCC1 [Compound 9, 2-(2-Morpholinoethyl)benzo[d]isothiazol-3(2H)-one]",EC50,YTHDF1 YTH domain [1]; [7],2.83 ± 1.08 µM
"O=c1c2ccccc2sn1-c1ccc(F)cc1 [Compound 5, 2-(4-Fluorophenyl)benzo[d]isothiazol-3(2H)-one]",EC50,YTHDF1 YTH domain [1]; [7],1.63 ± 0.89 µM
"CCN(CC)CCn1sc2ccccc2c1=O [Compound 7, 2-(2-(Diethylamino)ethyl)benzo[d]isothiazol-3(2H)-one]",EC50,YTHDF1 YTH domain [1]; [7],1.69 ± 0.26 µM
m6A RNA probe used in DMR,K half,YTHDF1 YTH domain [3],63.8 nM
"O=c1c2ccccc2[se]n1-c1ccc(F)cc1 [Compound 4, 2-(4-Fluorophenyl)benzo[d][1,2]selenazol-3(2H)-one]",EC50,YTHDF1 YTH domain [1]; [7],1.89 ± 0.33 µM
"O=C1c2ccccc2CN1c1ccccc1 [Compound 3, 2-phenylisoindolin-1-one]",Tryptophan fluorescence quenching / binding to the YTH domain (in words),YTHDF1 YTH domain [1],completely abolished; also recorded: failed to generate a dose–response curve
same,EC50,YTHDF1 YTH domain [1]; [7],> 100 µM
same,"Disruption of the YTH/RNA interaction (AlphaScreen, in words)",[2],completely abolished; also recorded: failed
"CCN(CC)CCn1[se]c2ccccc2c1=O [Compound 6, 2-(2-(Diethylamino)ethyl)benzo[d][1,2]selenazol-3(2H)-one]",EC50,YTHDF1 YTH domain [1]; [7],1.48 ± 0.26 µM
CCGAACUGUC (ssRNA) [GAACU ssRNA unmethylated],binding result,YTHDF1 YTH domain [4],no binding
"CCGAACUGUC (ssRNA, m6A at position 5) [GAm6ACU ssRNA]",apparent K (half saturation),YTHDF1 YTH domain [5],140 nM
CCGGACUGUC (ssRNA) [GGACU ssRNA unmethylated],binding result,YTHDF1 YTH domain [4],no binding
"CCGGACUGUC (ssRNA, m6A at position 5) [GGm6ACU ssRNA (m6A-RNA)]",apparent K (half saturation),YTHDF1 YTH domain [5],1050 nM

# From paper PMC9578143, “Small-Molecule Ebselen Binds to YTHDF Proteins Interfering with the Recognition of N^6-Methyladenosine-Modified RNAs” (ACS Pharmacology & Translational Science, 2022)
